The values that follow come from ChEMBL document CHEMBL1131949, “Stereoselective synthesis and receptor activity of conformationally defined retinoid X receptor selective ligands” (Bioorg Med Chem Lett, 1999).

The target of assay [1] is T1, Retinoic acid receptor RXR-beta (Homo sapiens, UniProt P28702).
T1 sequence (P28702 whole entry): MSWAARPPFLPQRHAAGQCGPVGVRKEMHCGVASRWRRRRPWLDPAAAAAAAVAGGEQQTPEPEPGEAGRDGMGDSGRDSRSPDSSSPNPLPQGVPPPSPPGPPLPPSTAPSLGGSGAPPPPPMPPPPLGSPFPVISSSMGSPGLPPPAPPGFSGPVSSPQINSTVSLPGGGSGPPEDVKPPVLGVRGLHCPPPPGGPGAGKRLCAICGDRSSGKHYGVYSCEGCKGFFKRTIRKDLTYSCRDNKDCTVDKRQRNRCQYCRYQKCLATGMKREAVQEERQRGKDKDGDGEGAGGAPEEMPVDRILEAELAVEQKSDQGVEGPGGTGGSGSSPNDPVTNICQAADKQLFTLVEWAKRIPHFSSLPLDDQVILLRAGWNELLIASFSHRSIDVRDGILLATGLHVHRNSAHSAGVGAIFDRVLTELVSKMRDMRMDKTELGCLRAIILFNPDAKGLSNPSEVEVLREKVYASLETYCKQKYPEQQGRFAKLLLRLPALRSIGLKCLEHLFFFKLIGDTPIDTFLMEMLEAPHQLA
Nature of the assay: Inhibition of [3H]-9-cis RA binding to Retinoid X receptor RXR beta.

Assay [2] concerns the target T2, Retinoic acid receptor RXR-gamma (Homo sapiens, UniProt P48443).
T2 sequence (P48443 whole entry): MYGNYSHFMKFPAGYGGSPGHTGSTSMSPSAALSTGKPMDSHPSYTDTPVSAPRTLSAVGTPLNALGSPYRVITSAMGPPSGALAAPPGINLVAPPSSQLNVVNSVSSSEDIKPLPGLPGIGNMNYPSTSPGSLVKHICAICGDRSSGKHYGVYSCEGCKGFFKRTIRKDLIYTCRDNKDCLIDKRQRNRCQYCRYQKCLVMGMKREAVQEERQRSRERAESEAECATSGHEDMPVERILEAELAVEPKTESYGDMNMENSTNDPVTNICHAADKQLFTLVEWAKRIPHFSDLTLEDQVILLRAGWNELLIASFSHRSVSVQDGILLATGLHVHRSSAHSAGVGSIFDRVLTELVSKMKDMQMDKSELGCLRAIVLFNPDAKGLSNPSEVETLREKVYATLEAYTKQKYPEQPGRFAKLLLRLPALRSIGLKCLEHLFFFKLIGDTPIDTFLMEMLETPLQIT
As to the kind of experiment: Inhibition of [3H]-9-cis RA binding to Retinoid X receptor RXR gamma.

In general, Kd refers to a measure of binding affinity in units of concentration. Lower therefore signals tighter binding. Take `CC1=C(/C=C/c2occc2/C=C/C(C)=C/C(=O)O)C(C)(C)CCC1`: the Kd in assay [1] was determined as 15 nM; in assay [2] it was 14 nM.
In the same order, the values of `CC1=C(/C=C/c2ccccc2/C=C/C(C)=C/C(=O)O)C(C)(C)CCC1` are 53 nM and 35 nM.
